Data taken from patent publication US8962688B2, “Method for the treatment of gastrointestinal disorders” (Sucampo AG, priority 2005, dated 2015).

Key:
[1] = tested on: indomethacin-induced stomach ulcers; experiment: Indomethacin-induced stomach ulcers in rats; type: in vivo, rat
Protocol: Each group of test animals used consisted of 10 male rats of the Crj: Wistar strain. The animals were fasted for 24 hours before the oral administration of the Compound 1 (13,14-dihydro-15-keto-16,16-difluoro-PGE1) or the vehicle. Ten minutes after the oral administration of the test sample or the vehicle, all rats received a 20 mg/kg oral dose of indomethacin. The animals were euthanized 6 hours later. The stomach was removed and the length of the longest axis of each stomach ulcer was measured. The ulcer index was calculated as the sum of the lengths of each individual ulcer.

[2] = tested on: rabbit platelet aggregation induced with ADP; experiment: Rabbit platelet aggregation induced with ADP; type: cell-based; conditions: for % Inhibition / Maximum aggregation: 10^−7 g/mL, platelet-rich plasma; for Maximum aggregation: mean ± SE, n=3; for Effect on the platelet aggregation: result in words, summary of Table 3
Protocol: Blood was collected from rabbits of the JW/CSK strain and citrated by mixing with sodium citrate in a ratio of 9 volumes of blood to 1 volume of 3.8% sodium citrate solution. Platelet-rich plasma (PRP) was obtained by centrifugation of the citrated blood at 1000 rpm (168×g) for 10 minutes. After collection of PRP, residual blood was further centrifuged at 3000 rpm (1670×g) for 15 minutes, and the supernatant was used as platelet-poor plasma (PPP). After pre-incubation of PRP (200 μL) with each test solution (25 μL) for 1 minutes at 37° C., 25 μL of platelet aggregation agent (ADP […]) was added. Platelet aggregation was measured with a platelet aggregation meter (HEMATRACER PAT-4A, Niko Bioscience, Inc.). Each test solution was examined with 3 different animal source platelets in duplicate fashion. Inhibition percent was calculated by comparing with the maximal aggregation with the saline-treatment group.

total acid output = experiment: Total gastric acid output in pylorus-ligated rats; type: in vivo, rat; conditions: oral, 30 min before pyloric ligation; 4 hours output; compared to vehicle-treated control (FIG. 1)
Protocol: The study was conducted according to the method described by Wong et al (Pharmacol. Soc. 32:49-56, 1989). Each group of test animals used consisted of 6 male rats of the Crj: Wistar strain. The animals were fasted for 24 hours with free access to water. Each dose formulation of Compound 1 (13,14-dihydro-15-keto-16,16-difluoro-PGE1), saline and medium chain fatty acid triglyceride (MCT) was orally administered 30 minutes before pyloric ligation. For positive control, the animals were received pentagastrin, a known gastric acid stimulator, subcutaneously at 2000 μg/kg. Under ether anesthesia, the abdomen was opened through a midline incision, the pylorus ligated with 3-0 silk suture, and the abdomen closed. The animals were kept without diet and water thereafter. Four hours after pyloric ligation, the animals were euthanized by cervical dislocation and the abdomen opened. The gastric contents were collected into sterile centrifuge tubes, and centrifuged at 3000 rpm for 10 minutes to remove solid materials. The supernatant was collected and the volume measured. A 1 mL aliquot of each gastric fluid sample was titrated to pH 7.0 with 0.01 N sodium hydroxide using an automatic […], Co., Ltd., Japan) to determine the acidity (mEq H^+/mL) Total output of gastric acid for 4 hours was calculated

[3] = tested on: gastric ulcer induced by water-immersion stress; experiment: Gastric ulcer induced by water-immersion stress (5 hours) in rats, single and combined treatment; type: in vivo, rat; conditions: for Inhibition of the gastric ulcer: result in words, summary of Table 4
Protocol: Wistar rats were used after an overnight fast with free access to water. Compound 1 (13,14-dihydro-15-keto-16,16-difluoro-PGE1) or Compound 2(13,14-dihydro-15-keto-16,16-difluoro-18(s) methyl-PGE1) was orally administered to the animals. When the effect of combined treatment with Compound 1 and proton pump inhibitor (lansoprazole or omeprazole) was evaluated, Compound 1 and proton pump inhibitor were orally administered simultaneously. Control group received the same volume of the vehicle. Ten minutes after the administration, the animals were placed in stress cages and were vertically immersed to the xiphoid process in a water bath maintained at 23° C. Five hours later, each animal was taken out from the cage and sacrificed by CO2 asphyxiation. The stomach was removed after ligating the cardiac region of stomach and the upper part of duodenum. The stomach was filled with 4 mL of physiological saline solution, and fixed in 1% formalin solution for 30 minutes. The stomach was opened along the greater curvature. The length (mm) of the individual ulcer was measured and the ulcer index was expressed as the sum of the lengths of all ulcers per stomach.

[4] = tested on: stress-induced stomach ulcers; experiment: Stress-induced (water immersion, 6 hours) stomach ulcers in rats; type: in vivo, rat; conditions: for Ulcer index (sum of lengths of each individual ulcer): mean ± SE
Protocol: Each group of test animals used consisted of 9 or 10 male rats of the Crj: Wistar strain. The animals were fasted for 24 hours before the oral administration of the test sample. Ten minutes after the oral administration of various doses of the Compound 1 (13,14-dihydro-15-keto-16,16-difluoro-PGE1) or the vehicle, each animal was put in a narrow cage, and was immersed in water (23° C.) up to the height of the xipoid process for 6 hours. The animals were then euthanized. The stomach was removed and the maximum length of the longest axis of each stomach ulcer was measured. The ulcer index was calculated as the sum of lengths of each individual ulcer.

| Structure (SMILES) | % Inhibition [2] | Maximum aggregation [2] | Effect on the platelet aggregation [2] | Inhibition ([3]; 10 μg/kg p.o.) | Ulcer Index Mean ± S.E. ([3]; 10 μg/kg p.o.) | Inhibition ([3]; 30 μg/kg p.o.) | Ulcer Index Mean ± S.E. ([3]; 30 μg/kg p.o.) | Inhibition ([3]; 100 μg/kg p.o.) | Ulcer Index Mean ± S.E. ([3]; 100 μg/kg p.o.) | Inhibition of the gastric ulcer [3] | other results |
| --- | --- | --- | --- | --- | --- | --- | --- | --- | --- | --- | --- |
| CCCCC(F)(F)C(=O)CCC1C(O)CC(=O)C1CCCCCCC(=O)O (stereo not shown) [Compound 1, 13,14-dihydro-15-keto-16,16-difluoro-PGE1] | 0% | 49.5 ± 2.5% | no effect | 23% | 12.2 ± 1.9 mm | 36% | 10.1 ± 1.6 mm | 91% | 1.4 ± 0.6 mm | dose-dependent manner | Ulcer index (sum of lengths of each individual ulcer) ([1]; 2 μg/kg po, 10 min before indomethacin 20 mg/kg po, mean ± SE): 27.9 ± 5.1; % Inhibition ([1]; 2 μg/kg po, versus vehicle control): 44%; Protection against indomethacin-induced ulcer formation ([1]; result in words, summary of Table 1): significant protection; Effect on total acid output (total acid output): did not affect; % Inhibition ([4]; 3 μg/kg po): 9.2%; Ulcer index (sum of lengths of each individual ulcer) ([4]; 3 μg/kg po): 26.6 ± 3.7; % Inhibition ([4]; 10 μg/kg po): 20.1%; Ulcer index (sum of lengths of each individual ulcer) ([4]; 10 μg/kg po): 23.4 ± 4.7; % Inhibition ([4]; 30 μg/kg po): 54.3%; Ulcer index (sum of lengths of each individual ulcer) ([4]; 30 μg/kg po): 13.4 ± 2.0; % Inhibition ([4]; 100 μg/kg po): 85.3%; Ulcer index (sum of lengths of each individual ulcer) ([4]; 100 μg/kg po): 4.3 ± 1.9; Protection against stress-induced ulcer formation ([4]; result in words, summary of Table 2): protection significantly |
| CC[C@H](C)CC(F)(F)C(=O)CC[C@H]1[C@H](O)CC(=O)[C@@H]1CCCCCCC(=O)O [Compound 2, 13,14-dihydro-15-keto-16,16-difluoro-18(s) methyl-PGE1] | – | – | – | 21% | 12.6 ± 2.2 mm | 36% | 10.2 ± 2.0 mm | 85% | 2.4 ± 0.9 mm | dose-dependent manner | – |
| Cc1c(OCC(F)(F)F)ccnc1C[S+]([O-])c1nc2ccccc2[nH]1 (stereo not shown) [Lansoprazole, lansoprazole, reference compound] | – | – | – | – | – | – | – | – | – | – | Ulcer Index Mean ± S.E. ([3]; Lansoprazole 1000 μg/kg p.o. alone): 4.6 ± 1.2 mm; inhibition at 1 mg/kg ([3]; Rattus norvegicus, po, Lansoprazole 1000 μg/kg p.o. alone): 46% |
| COc1ccc2[nH]c([S+]([O-])Cc3ncc(C)c(OC)c3C)nc2c1 (stereo not shown) [Omeprazole, omeprazole, reference compound] | – | – | – | – | – | – | – | – | – | – | Ulcer Index Mean ± S.E. ([3]; Omeprazole 3000 μg/kg p.o. alone): 5.9 ± 0.9 mm; inhibition at 3 mg/kg ([3]; Rattus norvegicus, po, Omeprazole 3000 μg/kg p.o. alone): 31% |
| CCCCC[C@H](O)/C=C/[C@H]1[C@H](O)CC(=O)[C@@H]1CCCCCCC(=O)O [PGE1, prostaglandin E1, reference compound] | 73% | 23.3 ± 1.9 % | significantly inhibited | – | – | – | – | – | – | – | – |
